From patent US10653693B2, “PRMT5 inhibitors and uses thereof” (Epizyme, Inc., priority 2014, dated 2020)

System: MDM4 splicing in Z138 cells
Test: MDM4 splicing analysis (PCR)
Format: cell-based, Human
Conditions: Z138 mantle cell lymphoma cells
Method: Z138 cells were seeded in 10 cm tissue culture dishes at a density of approximately 3×10^6 cells per dish in a volume of 10 mL IMDM+10% horse serum media. Cells were treated with 200 nM or 1 μM of compound at 0.5% DMSO for 1, 2, or 3 days. Cell pellets were harvested by washing once with PBS, […], centrifuging at 1000×g for 5 minutes, then storing at −80° C. until ready to process.
RNA was extracted from cell pellets. First, pellets were thawed on ice and then quickly resuspended in 500 μL Trizol reagent. Samples were then incubated 2-3 minutes at room temperature and vortexed for 30 sec to completely homogenize the lysate. 50 μL of water and 50 μL of chloroform were added to each Trizol-cell mixture, then each sample was vortexed for 30 sec to mix completely. Samples were loaded onto MaXtract High Density tubes and spun at 14,000 RPM for 5 minutes. The clear supernatant (aqueous phase) from each tube was transferred to a new 2 mL tube and 2× volume of freshly prepared 70% ethanol was added to each sample. Samples were loaded onto RNeasy spin columns (part of Qiagen RNeasy Mini kit). Columns were centrifuged at 9000×g for 15 sec and flow-through was discarded. 350 μL Buffer RW1 was added to each column and samples were centrifuged at […] for 15 sec and flow-through was discarded. […] RNA concentration was analyzed on a Nanodrop. […]

O=C(NC[C@H](O)CN1CCc2ccccc2C1)c1ccnc(NC2CCC2)c1 [Formula C]
MDM4 splicing: attenuates
